Test results reported in patent US20190038571A1, “Orally Available Small Molecules to Inhibit the Function of the Complement System” (priority 2017, published 2019).

How the values were obtained:
[1] = in vivo; cited from earlier work
CA1 neurons = conditions: in vivo; cited from earlier work
[2] = system: classical complement pathway; experiment: sheep erythrocyte lysis assay (complement-mediated lysis of sensitized sheep erythrocytes in normal human serum); assay type: cell-based; conditions: for Inhibition of complement-mediated sheep erythrocyte lysis: 240 nM to 50 uM added to normal human serum, 37° C., 30 min, hemoglobin absorption at 412 nm
Description: FIG. 1. […] Various concentrations of pterostilbene, ranging from 240 nM to 50 uM were added to normal human serum, which was then incubated at 37° C. with sensitized sheep erythrocytes.
The lysis of the sheep erythrocytes is mediated by the classical complement pathway.
Various concentrations of pterostilbene, ranging from 240 nM to 50 uM were added to normal human serum, which was then incubated at 37° C. with sensitized sheep erythrocytes. After a 30 min incubation, the remaining unlysed erythrocytes were pelleted by centrifugation and the amount of hemoglobin released by cell lysis was quantified by absorption spectroscopy at wavelength of 412 nm. Inhibition of lysis indicates reduced complement activity. This is representative data from 3 separate experiments.

C5a receptor = target: T1, C5a receptor (Mus musculus, UniProt P30993); conditions: cited from earlier work
T1 sequence (P30993 1-351): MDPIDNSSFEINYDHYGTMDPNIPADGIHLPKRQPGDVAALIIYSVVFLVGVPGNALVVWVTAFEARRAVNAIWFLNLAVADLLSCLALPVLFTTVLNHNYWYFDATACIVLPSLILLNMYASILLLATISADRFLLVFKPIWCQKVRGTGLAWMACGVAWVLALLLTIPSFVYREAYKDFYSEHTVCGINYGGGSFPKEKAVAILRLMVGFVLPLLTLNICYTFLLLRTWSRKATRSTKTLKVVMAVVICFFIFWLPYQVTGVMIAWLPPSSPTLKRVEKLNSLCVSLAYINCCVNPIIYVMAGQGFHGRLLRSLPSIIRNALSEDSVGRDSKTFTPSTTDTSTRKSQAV

Compound	bioavailability [1]	protection of CA1 neurons from ischemia reperfusion damage (CA1 neurons)	Inhibition of complement-mediated sheep erythrocyte lysis [2]	beta amyloid induced loss of MAP-2 (C5a receptor)	concentration active to inhibit complement system ([2]; in human serum)	potency in the sheep erythrocyte lysis assay relative to the other stilbene ([2]; pterostilbene versus resveratrol)
Oc1ccc(C=Cc2cc(O)cc(O)c2)cc1 [Resveratrol]	poor bioavailability	protects CA1 neurons from ischemia reperfusion damage	active			
PMX53				blocked		
COc1cc(/C=C/c2ccc(O)cc2)cc(OC)c1 [CCB-695, pterostilbene]	superior pharmacokinetics and bioavailability		inhibition of complement-mediated sheep erythrocyte lysis		lower than 1 μM	greater potency than resveratrol
